Legend:
human mu opioid receptor = target: T1, human mu opioid receptor (Homo sapiens, UniProt P35372); assay: Human Mu Opioid Receptor Binding Assay (CHO membranes, 3H-Damgo); settings: read-out: hKi μ
T1 construct: purchased Perkin Elmer RBHOMM400UA; host or cells: Chinese Hamster Ovary cells (recombinant expression)
Experimental: Membranes from Chinese Hamster Ovary cells expressing the human […] opioid receptor (Perkin Elmer #RBHOMM400UA) are homogenized in assay buffer (50 mM Tris, pH 7.5 with 5 mM MgCl2) using a glass tissue grinder, Teflon pestle and a Steadfast Stirrer (Fisher Scientific). The concentration of membranes is adjusted to 300 μg/mL in assay buffer and 100 μL is dispensed into each well of the assay plate, a 96 well round bottom polypropylene plate. Compounds to be tested are solubilized in DMSO (Pierce), 10 mM, then diluted in assay buffer to 6× the desired final concentration. The ligand, ^3H-Damgo (Perkin Elmer #NET-902) is also diluted in assay buffer to 3.6 nM. In a second 96 well round bottom polypropylene plate, known as the premix plate, 60 μL of the 6× compound is combined with 60 μL of 3.6 nM ^3H-Damgo. From this premix plate 50 μL is transferred to the assay plate containing the membranes, in duplicate. The assay plate is incubated for 2 h at room temperature. A GF/C 96 well filter plate (Perkin Elmer #6005174) is pretreated with 0.3% polyethylenimine for 30 min. The contents of the assay plate are filtered through the filter plate using a Packard Filtermate Harvester, and washed 3 times with 0.9% saline that is 4° C. The filter plate is dried, the underside sealed, and 30 μL Microscint20 (Packard #6013621) added to each well. A Topcount-NXT Microplate Scintillation Counter (Packard) is used to measure emitted energies in the range of 2.9 to 35 KeV. […] Nonspecific binding is determined in the presence of 1 μM unlabelled Damgo (Tocris #1171).

[1] = target: T2, mu opioid receptor (CHO-hMOR cell membranes) (Homo sapiens, UniProt P35372); assay: Mu Opioid Receptor Functional Assay: [35S]GTPγS Binding in CHO-hMOR Cell Membranes, Versions 1 and 2; type: biochemical; settings: for MOR GTP binding assay_v2 (% I): version 2, % inhibition of agonist-stimulated GTPγS binding; for EC50: version 2, read-out: MOR GTP binding assay v2 EC50
T2 construct: purchased Receptor Biology, Inc. (Baltimore, Md.); host or cells: CHO cells (recombinant expression)
T2 sequence (P35372 whole entry): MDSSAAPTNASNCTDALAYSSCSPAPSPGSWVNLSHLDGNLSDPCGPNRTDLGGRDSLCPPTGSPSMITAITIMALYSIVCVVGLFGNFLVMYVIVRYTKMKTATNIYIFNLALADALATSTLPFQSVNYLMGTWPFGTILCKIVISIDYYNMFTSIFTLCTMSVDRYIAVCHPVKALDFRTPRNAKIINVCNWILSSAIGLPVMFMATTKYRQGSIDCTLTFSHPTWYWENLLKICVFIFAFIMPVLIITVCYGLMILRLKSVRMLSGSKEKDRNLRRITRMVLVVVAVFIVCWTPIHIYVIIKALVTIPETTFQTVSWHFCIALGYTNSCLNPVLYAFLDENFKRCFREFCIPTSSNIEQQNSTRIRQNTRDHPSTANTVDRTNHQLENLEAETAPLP
Experimental: CHO-hMOR cell membranes were purchased from Receptor Biology, Inc. (Baltimore, Md.). About 10 mg/ml of membrane protein was suspended in 10 mM TRIS-HCl pH 7.2, 2 mM EDTA, 10% sucrose, and the suspension kept on ice. One ml of membranes was added to 15 ml cold binding assay buffer containing 50 mM HEPES, pH 7.6, 5 mM MgCl2, 100 mM NaCl, 1 mM DTT and 1 mM EDTA. The membrane suspension was homogenized with a Polytron and centrifuged at 3,000 rpm for 10 min. The supernatant was then centrifuged at 18,000 rpm for 20 min. The pellet was resuspended in 10 ml assay buffer with a Polytron.
The membranes were preincubated with wheat germ agglutinin coated SPA beads (Amersham) at 25° C. for 45 min in the assay buffer. The SPA bead (5 mg/ml) coupled membranes (10 μg/ml) were then incubated with 0.5 nM [^35S]GTPγS in the assay buffer. […] A range of concentrations of receptor agonists was used to stimulate [^35S]GTPγS binding. Both basal and non-specific binding was tested in the absence of agonist; non-specific binding determination included 10 μM unlabeled GTPγS.
Compounds were tested for function as antagonists by evaluating their potential to inhibit agonist-stimulated GTPγS binding. Radioactivity was quantified on a Packard TopCount. The following parameters were calculated:
[formula] % Inhibition=(% stimulation by 1 μM SNC80−% stimulation by 1 μM SNC80 in presence of test compound)×100/(% Stimulation by 1 μM SNC80−100)
EC50 values were calculated using GraphPad Prism.

T1 sequence (P35372 whole entry): as above

Cc1cc(O)cc(C)c1C[C@H](N)C(=O)N(CC1CCNCC1)[C@@H](C)c1nc(-c2ccccc2)c[nH]1 [Cpd 16] gave a Ki (human mu opioid receptor) of 16 nM.
COc1ccc(CN(C(=O)[C@@H](N)Cc2c(C)cc(C(N)=O)cc2C)[C@@H](C)c2nc(-c3cccc(C#N)c3)c[nH]2)cc1OC [Cpd 24] showed a Ki (human mu opioid receptor) of 9.3 nM.
Cc1cc(O)cc(C)c1C[C@H](N)C(=O)N(Cc1nc(-c2cccc(OC(F)(F)F)c2)c(C)[nH]1)C(C)C [Cpd 43] showed a Ki (human mu opioid receptor) of 6.9 nM.
Cc1cc(O)cc(C)c1C[C@H](N)C(=O)N(Cc1nc(-c2ccc(C(=O)O)c(F)c2)c(C)[nH]1)C(C)C [Cpd 37] showed a Ki (human mu opioid receptor) of 183 nM.
COC(=O)c1cc(CN(C(=O)[C@@H](N)Cc2ccccc2)[C@@H](C)c2nc(-c3ccccc3)c[nH]2)ccc1OC [Cpd 266] gave a Ki (human mu opioid receptor) of 69 nM.
Cc1cc(O)cc(C)c1C[C@H](N)C(=O)N(Cc1nc(-c2ccc(OC(F)(F)F)cc2)c(C)[nH]1)C(C)C [Cpd 44] was tested, and the Ki (human mu opioid receptor) was 8.7 nM.
For Cc1cc(C(N)=O)cc(C)c1C[C@H](N)C(=O)N(Cc1ccccc1C#N)[C@@H](C)c1nc(-c2ccccc2)c[nH]1 [Cpd 2], the Ki (human mu opioid receptor) was 2.9 nM.
Cc1cc(C(N)=O)cc(C)c1C[C@H](N)C(=O)N(C1CCCCC1)[C@H](C)c1nc(-c2ccccc2)c[nH]1 [Cpd 128] was tested, and the Ki (human mu opioid receptor) was 58 nM.
Cc1cc(O)cc(C)c1C[C@H](N)C(=O)N(Cc1ccc(OCc2ccccc2)c(OCc2ccccc2)c1)[C@@H](C)c1nc(-c2ccccc2)c[nH]1 [Cpd 30] gave a Ki (human mu opioid receptor) of 34 nM.
COc1ccc(CN(C(=O)[C@@H](N)Cc2c(C)cc(C(N)=O)cc2C)[C@@H](C)c2nc(-c3ccccc3Br)c[nH]2)cc1OC [Cpd 26] was tested, and the Ki (human mu opioid receptor) was 17 nM.
Compound Cc1[nH]c(CN(C(=O)[C@@H](N)Cc2ccc(O)cc2)C(C)C)nc1-c1cncnc1 [Cpd 132] has a Ki (human mu opioid receptor) of 166 nM.
With C[C@@H](c1nc(Cc2ccccc2)c[nH]1)N(C)C(=O)[C@@H](N)Cc1ccc(O)cc1 [Cpd 204] the Ki (human mu opioid receptor) was 7.7 nM.
COc1ccc(CN(C(=O)[C@@H](N)Cc2c(C)cc(O)cc2C)[C@@H](COCc2ccccc2)c2nc(-c3ccccc3)c[nH]2)cc1OC [Cpd 21] showed a Ki (human mu opioid receptor) of 37.6 nM.
Cc1cc(C(N)=O)cc(C)c1C[C@H](N)C(=O)N(Cc1ccc(C(=O)O)cc1)[C@@H](C)c1nc(-c2cccc3ccccc23)c[nH]1 [Cpd 13] gave a Ki (human mu opioid receptor) of 4.8 nM.
For COc1ccc(CN(C(=O)[C@@H](N)Cc2c(C)cc(C(N)=O)cc2C)[C@@H](C)c2nc(-c3ccccc3C(N)=O)c[nH]2)cc1OC [Cpd 28], the Ki (human mu opioid receptor) was 44 nM.
Cc1cc(O)cc(C)c1C[C@H](N)C(=O)N(Cc1nc(-c2ccc(C#N)cc2)c(C)[nH]1)C(C)C [Cpd 41] gave a Ki (human mu opioid receptor) of 1.6 nM.
With COc1cccc(CN(C(=O)[C@@H](N)Cc2c(C)cc(O)cc2C)[C@@H](C)c2nc(-c3ccccc3)c[nH]2)c1 [Cpd 33] the Ki (human mu opioid receptor) was 6.9 nM.
With Cc1cc(C(N)=O)cc(C)c1C[C@H](N)C(=O)N(Cc1ccnc(C(=O)O)c1)[C@@H](C)c1nc(-c2ccccc2)c[nH]1 [Cpd 316] the “MOR GTP binding assay_v2 (% I)” value [1] was 76% and the EC50 [1] was 24.1 nM.
For Cc1cc(O)cc(C)c1C[C@H](N)C(=O)N(Cc1nc(C=Cc2ccccc2)c(C)[nH]1)C(C)C [Cpd 38], the Ki (human mu opioid receptor) was 19 nM.
In the case of COC(=O)N[C@@H](Cc1c(C)cc(C(N)=O)cc1C)C(=O)N(Cc1ccc(OC)c(C(=O)OC)c1)[C@@H](C)c1nc(-c2ccccc2)c[nH]1 [Cpd 310], the “MOR GTP binding assay_v2 (% I)” value [1] is reported as 51.00% and the EC50 [1] is reported as 3920 nM.
For COc1ccc(CN(C(=O)[C@@H](N)Cc2c(C)cc(O)cc2C)[C@@H](C)c2nc(-c3ccccc3)c[nH]2)c(OC)c1 [Cpd 34], the Ki (human mu opioid receptor) was 19 nM.
Cc1cc(C(N)=O)cc(C)c1C[C@H](N)C(=O)N(Cc1ccccc1)[C@@H](C)c1nc(-c2ccc(C(F)(F)F)cc2)c[nH]1 [Cpd 42] was tested, and the Ki (human mu opioid receptor) was 5.8 nM.
For COc1ccc(CN(C(=O)[C@@H](N)Cc2c(C)cc(C(N)=O)cc2C)[C@@H](C)c2nc(-c3cccc(C(N)=O)c3)c[nH]2)cc1OC [Cpd 23], the Ki (human mu opioid receptor) was 34.3 nM.
Cc1cc(C(N)=O)cc(C)c1C[C@H](N)C(=O)N(Cc1ccccc1Br)[C@@H](C)c1nc(-c2ccccc2)c[nH]1 [Cpd 3] gave a Ki (human mu opioid receptor) of 13 nM.
In the case of COC(=O)c1ccnc(CN(C(=O)[C@@H](N)Cc2c(C)cc(C(N)=O)cc2C)[C@@H](C)c2nc(-c3ccccc3)c[nH]2)c1 [Cpd 312], the “MOR GTP binding assay_v2 (% I)” value [1] is reported as 35.00% and the EC50 [1] is reported as 58.7 nM.
For COc1ccc(CN(C(=O)[C@@H](N)Cc2c(C)cc(C(N)=O)cc2C)[C@@H](C)c2nc(-c3cccc(Br)c3)c[nH]2)cc1OC [Cpd 19], the Ki (human mu opioid receptor) was 18.2 nM.
Compound Cc1cc(O)cc(C)c1C[C@H](N)C(=O)N(CC(=O)O)Cc1nc(-c2ccccc2)c[nH]1 [Cpd 129] has a Ki (human mu opioid receptor) of 25.3 nM.
In the case of COc1cc(Br)c(CN(C(=O)[C@@H](N)Cc2c(C)cc(C(N)=O)cc2C)[C@@H](C)c2nc(-c3ccccc3)c[nH]2)cc1OC [Cpd 229], the Ki (human mu opioid receptor) is reported as 12 nM.
For Cc1cc(O)cc(C)c1C[C@H](N)C(=O)N(Cc1nc(-c2ccc(CO)cc2)c(C)[nH]1)C(C)C [Cpd 39], the Ki (human mu opioid receptor) was 0.9 nM.
COC(=O)c1cc(CN(Cc2nc(-c3ccccc3)c[nH]2)C(=O)[C@@H](N)Cc2c(C)cc(C(N)=O)cc2C)ccc1OC [Cpd 7] was tested, and the Ki (human mu opioid receptor) was 6.8 nM.
Work on Cc1cc(O)cc(C)c1C[C@H](N)C(=O)N(Cc1nc(-c2ccccc2)c[nH]1)C(c1ccccc1)c1ccccc1 [Cpd 40] yielded a Ki (human mu opioid receptor) of 152 nM.
COc1ccc(CN(C(=O)[C@@H](N)Cc2c(C)cc(O)cc2C)[C@H](COCc2ccccc2)c2nc(-c3ccccc3)c[nH]2)cc1OC [Cpd 22] gave a Ki (human mu opioid receptor) of ~200 nM.
Work on Cc1cc(O)cc(C)c1C[C@H](N)C(=O)N(Cc1nc(-c2cccc(NS(C)(=O)=O)c2)c(C)[nH]1)C(C)C [Cpd 45] yielded a Ki (human mu opioid receptor) of 1.2 nM.
Work on Cc1cc(O)cc(C)c1C[C@H](N)C(=O)N(Cc1nc(-c2cc(N)cc(C(=O)O)c2)c(C)[nH]1)C(C)C [Cpd 47] yielded a Ki (human mu opioid receptor) of 22 nM.
With Cc1cc(O)cc(C)c1C[C@H](N)C(=O)N(Cc1ccc(O)c(O)c1)[C@@H](C)c1nc(-c2ccccc2)c[nH]1 [Cpd 15] the Ki (human mu opioid receptor) was 285 nM.
With COC(=O)c1cccc(CN(C(=O)[C@@H](N)Cc2c(C)cc(C(N)=O)cc2C)[C@@H](C)c2nc(-c3cccc4ccccc34)c[nH]2)c1 [Cpd 10] the Ki (human mu opioid receptor) was 15.5 nM.
Cc1cc(C(N)=O)cc(C)c1C[C@H](N)C(=O)N(Cc1ccccc1)[C@H](C)c1nc(-c2ccccc2)c[nH]1 [Cpd 113] was tested, and the Ki (human mu opioid receptor) was 16 nM.
For CN[C@@H](Cc1ccc(OCc2ccccc2)cc1)C(=O)N(Cc1ccc(OC)c(C(=O)O)c1)[C@@H](C)c1nc(-c2ccccc2)c[nH]1 [Cpd 274], the Ki (human mu opioid receptor) was > 1000 nM.
For COc1ccc(CN(C(=O)[C@@H](N)Cc2c(C)cc(O)cc2C)[C@@H](C)c2nc(-c3ccccc3)c[nH]2)cc1 [Cpd 32], the Ki (human mu opioid receptor) was 6.8 nM.
For COc1ccc(CN(C(=O)[C@@H](N)Cc2c(C)cc(C(N)=O)cc2C)[C@@H](C)c2nc(-c3ccccc3C#N)c[nH]2)cc1OC [Cpd 27], the Ki (human mu opioid receptor) was 30 nM.
With COc1ccc(CN(Cc2nc(-c3ccccc3)c[nH]2)C(=O)[C@@H](N)Cc2c(C)cc(O)cc2C)cc1OC [Cpd 35] the Ki (human mu opioid receptor) was 2.8 nM.
COC(=O)c1cc(CN(C(=O)[C@@H](N)Cc2c(C)cc(O)cc2C)[C@@H](C)c2nc(-c3ccccc3)c[nH]2)ccc1OC [Cpd 268] was tested, and the Ki (human mu opioid receptor) was 5.79 nM.
With Cc1cc(C(=O)O)cc(C)c1C[C@H](N)C(=O)N(Cc1ccc(C(=O)O)cc1)[C@@H](C)c1nc(-c2ccccc2)c[nH]1 [Cpd 49] the Ki (human mu opioid receptor) was 48 nM.
In the case of COc1ccc(CN(C(=O)[C@@H](N)Cc2c(C)cc(C(N)=O)cc2C)[C@@H](C)c2nc(-c3ccccc3)c[nH]2)cc1-c1nnn(C(C)(C)C)n1 [Cpd 309], the “MOR GTP binding assay_v2 (% I)” value [1] is reported as 47.00% and the EC50 [1] is reported as 23 nM.
With Cc1cc(O)cc(C)c1C[C@H](N)C(=O)N(Cc1nc(-c2ccc(CCC(=O)O)cc2)c(C)[nH]1)C(C)C [Cpd 46] the Ki (human mu opioid receptor) was 35 nM.
Work on CC(C)[C@@H](c1nc(-c2ccccc2)c[nH]1)N(C(=O)[C@@H](N)Cc1cccc(C(N)=O)c1)C(C)C [Cpd 137] yielded a Ki (human mu opioid receptor) of 445 nM.

Source: patent US10213415B2, “Compounds as opioid receptor modulators” (JANSSEN PHARMACEUTICA NV, priority 2004, dated 2019)
